Laboratory results published in patent publication US11952584B2, “Functional peptides having antimicrobial activity against phytopathogenic microorganisms” (TOYOTA JIDOSHA KABUSHIKI KAISHA, priority 2019, dated 2024).
“And” between values parts separate entries of the source, which are not always exact repeats. Equal values may be shown once. Read-outs that look alike come from different tables or passages of the source.

Legend:
Format in all cases: cell-based
Botrytis cinerea = conditions: 25° C., 1 day or 2 days
[1] = tested on: Colletotrichum destructivum; conditions: 25° C., 1 day or 2 days
[2] = tested on: Colletotrichum orbiculare; conditions: 25° C., 1 day or 2 days
Fusarium oxysporum = tested on: Fusarium oxysporum
Pyricularia oryzae = conditions: 25° C., 1 day or 2 days
[3] = tested on: plant pathogenic filamentous fungi; conditions: summary of Table 3

Row | Substance | Plate antimicrobial activity test Botrytis cinerea (level) (Botrytis cinerea; peptide 1 μM) | Plate antimicrobial activity test Botrytis cinerea (level) (Botrytis cinerea; peptide 10 μM) | Plate antimicrobial activity test Botrytis cinerea (level) (Botrytis cinerea; peptide 100 μM) | Plate antimicrobial activity test Colletotrichum destructivum (level) ([1]; peptide 1 μM) | Plate antimicrobial activity test Colletotrichum destructivum (level) ([1]; peptide 10 μM) | Plate antimicrobial activity test Colletotrichum destructivum (level) ([1]; peptide 100 μM) | Plate antimicrobial activity test Collectotrichum orbiculare (level) ([2]; peptide 1 μM) | Plate antimicrobial activity test Collectotrichum orbiculare (level) ([2]; peptide 10 μM) | Plate antimicrobial activity test Collectotrichum orbiculare (level) ([2]; peptide 100 μM) | Plate antimicrobial activity test Fusarium oxysporum (level) (Fusarium oxysporum) | Plate antimicrobial activity test Pyricularia oryzae (level) (Pyricularia oryzae; peptide 1 μM) | Plate antimicrobial activity test Pyricularia oryzae (level) (Pyricularia oryzae; peptide 10 μM) | Plate antimicrobial activity test Pyricularia oryzae (level) (Pyricularia oryzae; peptide 100 μM) | germination inhibitory activity against plant pathogenic filamentous fungi (in words) [3]
1 | ERTRKFWR (listed as Solanum lycopersicum) [TsORF18-2-8aa-9] | 0 | 0 | 3 | 0 | 0 | 0 | 0 | 0 | 1 | 3 and 0 | 0 | 0 | 1 | extremely excellent germination inhibitory activity
2 | WRIWK (listed as Solanum lycopersicum) [TsORF18-2-5aa-15] | 0 | 0 | 3 | 0 | 0 | 3 | 0 | 0 | 2 | 2 and 0 | 0 | 0 | 0 | extremely excellent germination inhibitory activity
3 | GFPAF (listed as Solanum lycopersicum) [TsORF18-2-5aa-3] | 0 | 0 | 0 | 0 | 0 | 0 | 0 | 0 | 0 | 0 | 0 | 0 | 0 | –
4 | WRIWKGKT (listed as Solanum lycopersicum) [TsORF18-2-8aa-15] | 0 | 0 | 3 | 0 | 0 | 3 | 0 | 0 | 3 | 3 and 0 | 0 | 0 | 0 | extremely excellent germination inhibitory activity
5 | SERTR (listed as Solanum lycopersicum) [TsORF18-2-5aa-8] | 0 | 0 | 0 | 0 | 0 | 0 | 0 | 0 | 0 | 0 | 0 | 0 | 0 | –
6 | AFSERTRK (listed as Solanum lycopersicum) [TsORF18-2-8aa-6] | 0 | 0 | 0 | 0 | 0 | 0 | 0 | 0 | 0 | 0 | 0 | 0 | 0 | –
7 | RIWKG (listed as Solanum lycopersicum) [TsORF18-2-5aa-16] | 0 | 0 | 0 | 0 | 0 | 0 | 0 | 0 | 0 | 0 | 0 | 0 | 0 | –
8 | FWRIW (listed as Solanum lycopersicum) [TsORF18-2-5aa-14] | 0 | 0 | 0 | 0 | 0 | 0 | 0 | 0 | 0 | 0 | 0 | 0 | 0 | –
9 | IWKGK (listed as Solanum lycopersicum) [TsORF18-2-5aa-17] | 0 | 0 | 0 | 0 | 0 | 0 | 0 | 0 | 0 | 0 | 0 | 0 | 0 | –
10 | GFPAFSER (listed as Solanum lycopersicum) [TsORF18-2-8aa-3] | 0 | 0 | 0 | 0 | 0 | 0 | 0 | 0 | 0 | 0 | 0 | 0 | 0 | –
11 | PAFSE (listed as Solanum lycopersicum) [TsORF18-2-5aa-5] | 0 | 0 | 0 | 0 | 0 | 0 | 0 | 0 | 0 | 0 | 0 | 0 | 0 | –
